Measured values: patent US20250346600A1, “TRICYCLIC DERIVATIVES AND RELATED USES” (MOMA Therapeutics, Inc., priority 2023, published 2025)
Where two headings read alike, the source gives them in different places.

Assays:
[1] = test system: HCT116 cells; experiment: HCT116 (MSI) 7 day viability, CellTiter Glo; type: cell-based; settings: 7 days, read-out: HCT116 (MSI) Viability 7 Day Abs AC50
Procedure, shortened: (§1)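 HCT116 seeded at 50 cells/well and HT29 at 500 cells/well onto compound plates (10-point 3-fold dilutions from 10 mM DMSO stock), incubated 7 days at 37 °C, 5% CO2.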

[2] = test system: HT29 cells; experiment: HT29 (MSS) 7 day viability, CellTiter Glo; type: cell-based; settings: 7 days, read-out: HT29 (MSS) Viability 7 Day CTGAbs AC50
Procedure, shortened: as §1

[3] = biological target: T1, Full length WRN protein (aa 2-1432) (Homo sapiens (Human), UniProt Q14191); experiment: WRN ATPase ADP-Glo biochemical assay, Assay Format B (100 μM ATP); settings: 0.25 nM WRN, 100 nM C6.18 ssDNA, 60 min preincubation, read-out: ATPase ADPGlo AC50 (uM)- Assay Format B
[4] = biological target: T1, Full length WRN protein (aa 2-1432); experiment: WRN ATPase ADP-Glo biochemical assay, Assay Format A (10 μM ATP); settings: 0.25 nM WRN, 100 nM C6.18 ssDNA, 30 min preincubation, read-out: ATPase ADPGlo AC50 (uM)- Assay Format A
Procedure, shortened: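 ADP-Glo luminescence measured hydrolysis of ATP by purified, baculovirus-expressed N-terminally tagged full-length WRN. Enzyme (0.5 nM) was preincubated 30 min with compound, then 200 nM ssDNA C6.18 plus 20 μM ATP were added (pre-mix levels) for 30 min at RT. IC50s come from four-parameter fits, geometric mean of at least two trials.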

T1 sequence (Q14191 2-1432): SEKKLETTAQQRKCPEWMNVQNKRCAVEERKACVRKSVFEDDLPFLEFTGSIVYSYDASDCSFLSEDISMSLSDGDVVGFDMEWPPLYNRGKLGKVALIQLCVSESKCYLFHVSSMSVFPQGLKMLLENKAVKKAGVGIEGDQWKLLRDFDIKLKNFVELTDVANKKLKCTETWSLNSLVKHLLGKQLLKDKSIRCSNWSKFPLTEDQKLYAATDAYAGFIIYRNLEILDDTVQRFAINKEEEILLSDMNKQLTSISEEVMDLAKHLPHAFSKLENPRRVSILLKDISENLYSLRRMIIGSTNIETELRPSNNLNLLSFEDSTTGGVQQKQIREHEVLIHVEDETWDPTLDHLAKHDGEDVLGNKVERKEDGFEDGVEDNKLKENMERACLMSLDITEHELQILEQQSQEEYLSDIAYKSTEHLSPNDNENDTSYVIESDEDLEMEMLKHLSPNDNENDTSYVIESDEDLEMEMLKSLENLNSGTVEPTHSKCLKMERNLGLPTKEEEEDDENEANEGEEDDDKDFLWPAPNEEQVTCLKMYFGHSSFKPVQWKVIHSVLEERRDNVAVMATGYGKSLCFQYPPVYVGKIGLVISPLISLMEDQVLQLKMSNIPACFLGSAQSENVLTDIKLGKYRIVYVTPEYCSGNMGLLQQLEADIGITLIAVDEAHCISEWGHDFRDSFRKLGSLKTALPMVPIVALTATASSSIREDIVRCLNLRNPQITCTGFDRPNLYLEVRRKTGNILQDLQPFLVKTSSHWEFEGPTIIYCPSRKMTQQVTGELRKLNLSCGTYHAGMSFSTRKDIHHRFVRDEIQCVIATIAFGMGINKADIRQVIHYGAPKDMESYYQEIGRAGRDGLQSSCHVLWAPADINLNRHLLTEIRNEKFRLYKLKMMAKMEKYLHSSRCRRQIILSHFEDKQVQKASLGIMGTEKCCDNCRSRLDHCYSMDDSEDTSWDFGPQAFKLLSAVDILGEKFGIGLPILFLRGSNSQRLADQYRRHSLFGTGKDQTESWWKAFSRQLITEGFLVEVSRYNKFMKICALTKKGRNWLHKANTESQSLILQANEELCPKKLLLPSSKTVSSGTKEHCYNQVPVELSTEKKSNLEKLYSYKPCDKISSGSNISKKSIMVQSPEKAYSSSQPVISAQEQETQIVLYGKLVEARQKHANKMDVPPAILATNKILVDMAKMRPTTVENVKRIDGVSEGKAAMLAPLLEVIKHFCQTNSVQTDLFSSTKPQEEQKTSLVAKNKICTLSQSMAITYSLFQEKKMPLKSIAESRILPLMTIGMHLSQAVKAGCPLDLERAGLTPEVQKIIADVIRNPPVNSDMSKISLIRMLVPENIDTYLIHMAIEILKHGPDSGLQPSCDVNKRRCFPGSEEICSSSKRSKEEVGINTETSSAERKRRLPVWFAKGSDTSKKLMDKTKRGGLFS

SMILES | AC50 ([1]; Homo sapiens, HCT-116, 168 h) | AC50 ([2]; Homo sapiens, HT-29, 168 h) | AC50 [3] | AC50 [4] | AC50 [1] | AC50 [2]
C=CC(=O)N1CCc2nn(-c3ccc(C4CC4)cc3)c3c2C(C1)N(C(=O)c1c(N)cc(C(F)(F)F)nc1N)CC3 (stereo not drawn) [Compound 186, 1-(2-(4-cyclopropylphenyl)-5-(2,4-diamino-6-(trifluoromethyl)nicotinoyl)-2,3,4,5,5a,6,8,9-octahydro-7H-1,2,5,7-tetraazabenzo[cd]azulen-7-yl)prop-2-en-1-one] | 1 to 100 nM | > 3000 nM | 0.005 to 0.015 µM | < 0.0015 µM |  | 
C=CC(=O)N1CC(OC)c2nn(-c3ccc(C4CC4)cc3)c3c2C(C1)N(C(=O)c1cnc(C(F)(F)F)cc1N)CC3 (stereo not drawn) [Compound 187, 1-(5-(4-amino-6-(trifluoromethyl)nicotinoyl)-2-(4-cyclopropylphenyl)-9-methoxy-2,3,4,5,5a,6,8,9-octahydro-7H-1,2,5,7-tetraazabenzo[cd]azulen-7-yl)prop-2-en-1-one] | 1 to 100 nM | > 3000 nM | 0.005 to 0.015 µM | < 0.0015 µM |  | 
C=CC(=O)N1CC(C)c2nn(-c3ccc(C4CC4)cc3O)c3c2C(C1)N(C(=O)c1cnc(C(F)(F)F)cc1N)CC3 (stereo not drawn) [Compound 189, 1-(5-(4-amino-6-(trifluoromethyl)nicotinoyl)-2-(4-cyclopropyl-2-hydroxyphenyl)-9-methyl-2,3,4,5,5a,6,8,9-octahydro-7H-1,2,5,7-tetraazabenzo[cd]azulen-7-yl)prop-2-en-1-one] | 1 to 100 nM | > 3000 nM | 0.005 to 0.015 µM | < 0.0015 µM |  | 
C=CC(=O)N1CCc2nn(-c3ccc(C4CC4)cc3O)c3c2C(C1)N(C(=O)c1cnc(OC(F)F)cc1N)CC3 (stereo not drawn) [Compound 192, 1-(5-(4-amino-6-(difluoromethoxy)nicotinoyl)-2-(4-cyclopropyl-2-hydroxyphenyl)-2,3,4,5,5a,6,8,9-octahydro-7H-1,2,5,7-tetraazabenzo[cd]azulen-7-yl)prop-2-en-1-one] | 1 to 100 nM | > 3000 nM | 0.005 to 0.015 µM | < 0.0015 µM |  | 
C=CC(=O)N1CCc2nn(-c3ccc(C4CC4)cc3O)c3c2C(C1)N(C(=O)c1ccc(Br)nc1N)CC3 (stereo not drawn) [Compound 193, 1-(5-(2-amino-6-bromonicotinoyl)-2-(4-cyclopropyl-2-hydroxyphenyl)-2,3,4,5,5a,6,8,9-octahydro-7H-1,2,5,7-tetraazabenzo[cd]azulen-7-yl)prop-2-en-1-one] | 1 to 100 nM | > 3000 nM | 0.005 to 0.015 µM | < 0.0015 µM |  | 
C=CC(=O)N1CCc2nn(-c3ccc(C4CC4)cc3O)c3c2C(C1)N(C(=O)c1cnc(C(F)(F)F)c(F)c1N)CC3 (stereo not drawn) [Compound 194, 1-(5-(4-amino-5-fluoro-6-(trifluoromethyl)nicotinoyl)-2-(4-cyclopropyl-2-hydroxyphenyl)-2,3,4,5,5a,6,8,9-octahydro-7H-1,2,5,7-tetraazabenzo[cd]azulen-7-yl)prop-2-en-1-one] | 1 to 100 nM | > 3000 nM | 0.005 to 0.015 µM | 0.0015 to 0.005 µM |  | 
C=CC(=O)N1CC(C)c2nn(-c3ccc(C4CC4)cc3O)c3c2C(C1)N(C(=O)c1cnc(C(F)(F)F)cc1N)CC3 (stereo not drawn) [Compound 195, 1-(5-(4-amino-6-(trifluoromethyl)nicotinoyl)-2-(4-cyclopropyl-2-hydroxyphenyl)-9-methyl-2,3,4,5,5a,6,8,9-octahydro-7H-1,2,5,7-tetraazabenzo[cd]azulen-7-yl)prop-2-en-1-one] |  |  | 0.005 to 0.015 µM | < 0.0015 µM | 1 to 100 nM | > 3000 nM
C=CC(=O)N1CCc2nn(-c3ccc(C4CC4)cc3O)c3c2C(C1)N(C(=O)c1cnc(Cl)cc1N)CC3 (stereo not drawn) [Compound 196, 1-(5-(4-amino-6-chloronicotinoyl)-2-(4-cyclopropyl-2-hydroxyphenyl)-2,3,4,5,5a,6,8,9-octahydro-7H-1,2,5,7-tetraazabenzo[cd]azulen-7-yl)prop-2-en-1-one] | 1 to 100 nM | > 3000 nM | 0.005 to 0.015 µM | < 0.0015 µM |  | 
C=CC(=O)N1CC(OC2CC(C#N)C2)c2nn(-c3ccc(C4CCC4)cc3)c3c2C(C1)N(C(=O)c1cnc(C(F)(F)F)cc1N)CC3 (stereo not drawn) [Compound 198, 3-((7-acryloyl-5-(4-amino-6-(trifluoromethyl)nicotinoyl)-2-(4-cyclobutylphenyl)-3,4,5,5a,6,7,8,9-octahydro-2H-1,2,5,7-tetraazabenzo[cd]azulen-9-yl)oxy)cyclobutane-1-carbonitrile] | 1 to 100 nM | > 3000 nM | 0.005 to 0.015 µM | < 0.0015 µM |  | 
C=CC(=O)N1CCc2nn(-c3ccc(C4CC4)cc3O)c3c2C(C1)N(C(=O)c1ccc(Cl)nc1N)CC3 (stereo not drawn) [Compound 199, 1-(5-(2-amino-6-chloronicotinoyl)-2-(4-cyclopropyl-2-hydroxyphenyl)-2,3,4,5,5a,6,8,9-octahydro-7H-1,2,5,7-tetraazabenzo[cd]azulen-7-yl)prop-2-en-1-one] | 1 to 100 nM | > 3000 nM | 0.005 to 0.015 µM | < 0.0015 µM |  | 
C=CC(=O)N1CCc2nn(-c3ccc(C4CC4)cc3O)c3c2C(C1)N(C(=O)c1cc(F)c(C(F)(F)F)nc1N)CC3 (stereo not drawn) [Compound 200, 1-(5-(2-amino-5-fluoro-6-(trifluoromethyl)nicotinoyl)-2-(4-cyclopropyl-2-hydroxyphenyl)-2,3,4,5,5a,6,8,9-octahydro-7H-1,2,5,7-tetraazabenzo[cd]azulen-7-yl)prop-2-en-1-one] | 1 to 100 nM | > 3000 nM | 0.015 to 0.055 µM | < 0.0015 µM |  | 
C=CC(=O)N1CCc2nn(Cc3ccccc3)c3c2C(C1)N(C(=O)c1cnc(C(F)(F)F)cc1N)CC3 (stereo not drawn) [Compound 201, 1-(5-(4-amino-6-(trifluoromethyl)nicotinoyl)-2-benzyl-2,3,4,5,5a,6,8,9-octahydro-7H-1,2,5,7-tetraazabenzo[cd]azulen-7-yl)prop-2-en-1-one] | > 1000 nM | > 3000 nM | < 0.0015 µM | > 0.055 µM |  | 
C=CC(=O)N1CCc2nn(-c3ccc(C4CC4)cc3O)c3c2C(C1)N(C(=O)c1cnc(Br)c(F)c1N)CC3 (stereo not drawn) [Compound 202, 1-(5-(4-amino-6-bromo-5-fluoronicotinoyl)-2-(4-cyclopropyl-2-hydroxyphenyl)-2,3,4,5,5a,6,8,9-octahydro-7H-1,2,5,7-tetraazabenzo[cd]azulen-7-yl)prop-2-en-1-one] | 1 to 100 nM | > 3000 nM | 0.0015 to 0.005 µM | 0.0015 to 0.005 µM |  | 
C=CC(=O)N1CCc2nn(-c3ccc(C4CC4)cc3O)c3c2C(C1)N(C(=O)c1cnc(C(C)(F)F)c(F)c1N)CC3 (stereo not drawn) [Compound 206, 1-(5-(4-amino-6-(1,1-difluoroethyl)-5-fluoronicotinoyl)-2-(4-cyclopropyl-2-hydroxyphenyl)-2,3,4,5,5a,6,8,9-octahydro-7H-1,2,5,7-tetraazabenzo[cd]azulen-7-yl)prop-2-en-1-one] | 1 to 100 nM | > 3000 nM | 0.0015 to 0.005 µM | 0.0015 to 0.005 µM |  | 
COC/C=C/C(=O)N1CCc2nn(-c3ccc(C4CCC4)cc3O)c3c2C(C1)N(C(=O)c1cnc(C(F)(F)F)cc1N)CC3 (stereo not drawn) [Compound 239, 1-(5-(4-amino-6-(trifluoromethyl)nicotinoyl)-2-(4-cyclobutyl-2-hydroxyphenyl)-2,3,4,5,5a,6,8,9-octahydro-7H-1,2,5,7-tetraazabenzo[cd]azulen-7-yl)-4-methoxybut-2-en-1-one] | 100 to 250 nM | > 3000 nM | > 0.055 µM | 0.005 to 0.015 µM |  | 
C=CC(=O)N1CCc2nn(-c3ccc(C4CCC4)cc3C)c3c2C(C1)N(C(=O)c1cnc(C(F)(F)F)cc1N)CC3 (stereo not drawn) [Compound 240, 1-(5-(4-amino-6-(trifluoromethyl)nicotinoyl)-2-(4-cyclobutyl-2-methylphenyl)-2,3,4,5,5a,6,8,9-octahydro-7H-1,2,5,7-tetraazabenzo[cd]azulen-7-yl)prop-2-en-1-one] | 1 to 100 nM | > 3000 nM | 0.0015 to 0.005 µM | < 0.0015 µM |  | 
C=CC(=O)N1CCc2nn(-c3ccc(C4CCC4)cc3Cl)c3c2C(C1)N(C(=O)c1cnc(C(F)(F)F)cc1N)CC3 (stereo not drawn) [Compound 241, 1-(5-(4-amino-6-(trifluoromethyl)nicotinoyl)-2-(2-chloro-4-cyclobutylphenyl)-2,3,4,5,5a,6,8,9-octahydro-7H-1,2,5,7-tetraazabenzo[cd]azulen-7-yl)prop-2-en-1-one] | 1 to 100 nM | > 3000 nM | 0.005 to 0.015 µM | < 0.0015 µM |  | 
C=CC(=O)N1CCc2nn(-c3ccc(C4CCC4)cc3O)c3c2C(C1)N(C(=O)c1ccc(C(F)(F)F)c2ncncc12)CC3 (stereo not drawn) [Compound 242, 1-(2-(4-cyclobutyl-2-hydroxyphenyl)-5-(8-(trifluoromethyl)quinazoline-5-carbonyl)-2,3,4,5,5a,6,8,9-octahydro-7H-1,2,5,7-tetraazabenzo[cd]azulen-7-yl)prop-2-en-1-one] | 1 to 100 nM | > 3000 nM | 0.015 to 0.055 µM | 0.0015 to 0.005 µM |  | 
